Activity calls are given as the source filed them. The calls are words filed in the database; no cut-off is given here.
Legend:
[1] = Drug uptake in plasma of diet-induced obese C57BL/6J mouse model at 3 mg/kg, po administered as daily dose measured at 2 hrs post last dose on day 22; type: ADME, organism-based
[2] = Clearance in C57BL/6J mouse at 5 mg/kg, iv or 20 mg/kg, po administered via gavage by LC-MS/MS analysis; type: ADME, organism-based; details: in vivo
Mus musculus [3] = experiment: Antiobesity activity in diet induced obese C57BL/6J mouse model assessed as decrease in body weight at 3 mg/kg, po administered as daily dose measured every day for 5 days and continuing every other day till day 8 and 15; type: functional, organism-based
[4] = biological target: Voltage-gated inwardly rectifying potassium channel KCNH2 (Homo sapiens, UniProt Q12809); experiment: Inhibition of human ERG
[5] = Half life in C57BL/6J mouse at 20 mg/kg, po administered via gavage by LC-MS/MS analysis; type: ADME, organism-based; details: in vivo
[6] = Drug uptake in plasma of MDR1a knockout CF-1 mouse at 20 mg/kg, po measured at 2 hrs post last dose on day 1; type: ADME, organism-based
Mus musculus [7] = experiment: Antiobesity activity in diet induced obese C57BL/6J mouse model assessed as decrease in food intake at 30 mg/kg administered as daily dose measured every day for 5 days; type: functional, organism-based
[8] = Drug uptake in plasma of diet-induced obese C57BL/6J mouse model at 10 mg/kg, po administered as daily dose measured at 2 hrs post last dose on day 1; type: ADME, organism-based
[9] = Drug uptake in C57BL/6J mouse plasma at 20 mg/kg, po measured after 4 hrs; type: ADME, organism-based
[10] = Drug uptake in plasma of diet-induced obese C57BL/6J mouse model at 10 mg/kg, po administered as daily dose measured at 2 hrs post last dose on day 22; type: ADME, organism-based
[11] = Oral bioavailability in C57BL/6J mouse at 20 mg/kg administered via gavage by LC-MS/MS analysis; type: ADME, organism-based; details: in vivo
[12] = Ratio of drug level in brain to plasma of diet-induced obese C57BL/6J mouse model at 10 mg/kg, po administered as daily dose measured at 2 hrs post last dose on day 23; type: ADME, organism-based; details: read-out: BPR
[13] = Drug uptake in brain of diet-induced obese C57BL/6J mouse model at 10 mg/kg, po administered as daily dose measured at 2 hrs post last dose on day 2; type: ADME, organism-based; details: in vivo
Cannabinoid receptor 2 = Cannabinoid receptor 2 (Homo sapiens, UniProt P34972); experiment: Inverse agonist activity at human CB2 receptor expressed in HEK293 cells assessed as […] cAMP accumulation after 30 mins by HTRF assay; type: functional, cell-based
[14] = Drug uptake in C57BL/6J mouse brain at 20 mg/kg, po measured after 1 hr; type: ADME, organism-based; details: in vivo
Mus musculus [15] = experiment: Antiobesity activity in diet induced obese C57BL/6J mouse model assessed as decrease in food intake at 3 mg/kg, po administered as daily dose measured every day for 5 days and continuing every other day till day 8 and 15; type: functional, organism-based
[16] = Drug uptake in C57BL/6J mouse brain at 20 mg/kg, po measured after 4 hrs; type: ADME, organism-based; details: in vivo
[17] = Drug uptake in brain of diet-induced obese C57BL/6J mouse model at 10 mg/kg, po administered as daily dose measured at 2 hrs post last dose on day 23; type: ADME, organism-based; details: in vivo
[18] = Drug uptake in plasma of diet-induced obese C57BL/6J mouse model at 3 mg/kg, po administered as daily dose measured at 2 hrs post last dose on day 1; type: ADME, organism-based
Mus musculus [19] = experiment: Antiobesity activity in diet induced obese C57BL/6J mouse model assessed as decrease in body weight at 30 mg/kg administered as daily dose measured every day for 5 days; type: functional, organism-based
[20] = Drug uptake in plasma of diet-induced obese C57BL/6J mouse model at 30 mg/kg administered as daily dose measured at 2 hrs post last dose on day 5; type: ADME, organism-based
Cytochrome P450 2C9 = Cytochrome P450 2C9 (Homo sapiens, UniProt P11712); experiment: Inhibition of CYP2C9 in human liver microsomes using tolbutamide as substrate after 10 to 30 mins by LC/MS analysis; type: ADME
[21] = Metabolic stability in rat liver microsomes assessed as parent compound remaining at 1 uM after 10 mins in presence of NADPH; type: ADME, microsome; details: read-out: Stability
Cytochrome P450 3A4 = Cytochrome P450 3A4 (Homo sapiens, UniProt P08684); experiment: Inhibition of CYP3A4 in human liver microsomes using midazolam/testosterone as substrate after 10 to 30 mins by LC/MS analysis; type: ADME
[22] = Protein binding in plasma (unknown origin); type: ADME, cell-free; details: unidentified, read-out: PPB
[23] = Drug uptake in plasma of diet-induced obese C57BL/6J mouse model at 1 mg/kg, po administered as daily dose measured at 2 hrs post last dose on day 1; type: ADME, organism-based
Salmonella typhimurium = experiment: Mutagenicity in Salmonella typhimurium by Ames test; type: toxicity, organism-based; details: salmonella enterica subsp. enterica serovar typhimurium
[24] = Metabolic stability in human liver microsomes assessed as parent compound remaining at 1 uM after 10 mins in presence of NADPH; type: ADME, microsome; details: read-out: Stability
Cytochrome P450 2C19 = Cytochrome P450 2C19 (Homo sapiens, UniProt P33261); experiment: Inhibition of CYP2C19 in human liver microsomes using (S)-mephenytoin as substrate after 10 to 30 mins by LC/MS analysis; type: ADME
Mus musculus [25] = experiment: Antiobesity activity in diet induced obese C57BL/6J mouse model assessed as decrease in body weight at 3 to 10 mg/kg, po administered as daily dose measured every day for 5 days and continuing every other day till day 17; type: functional, organism-based
[26] = Ratio of drug level in brain to plasma of diet-induced obese C57BL/6J mouse model at 3 mg/kg, po administered as daily dose measured at 2 hrs post last dose on day 23; type: ADME, organism-based; details: read-out: BPR
Mus musculus [27] = experiment: Antiobesity activity in diet induced obese C57BL/6J mouse model assessed as decrease in liver fat content at 3 to 10 mg/kg, po administered as daily dose measured at day 26 post last dose; type: functional, organism-based
Cannabinoid receptor 1 = Cannabinoid receptor 1 (Homo sapiens, UniProt P21554); experiment: Potency index, ratio of rimonabant IC50 to compound IC50 for displacement of [3H]-CP-55940 from human CB1 receptor expressed in CHO-K1 cell membranes
Mus musculus [28] = experiment: Induction of insulin sensitivity in diet induced obese C57BL/6J mouse model at 3 to 10 mg/kg, po administered as daily dose measured at day 26 post last dose; type: functional, organism-based
[29] = AUClast in C57BL/6J mouse at 20 mg/kg, po administered via gavage by LC-MS/MS analysis; type: ADME, organism-based; details: in vivo
[30] = Ratio of drug level in brain to plasma of diet-induced obese C57BL/6J mouse model at 10 mg/kg, po administered as daily dose measured at 2 hrs post last dose on day 1; type: ADME, organism-based; details: read-out: BPR
[31] = Drug uptake in C57BL/6J mouse plasma at 20 mg/kg, po measured after 1 hr; type: ADME, organism-based
[32] = Drug uptake in brain of diet-induced obese C57BL/6J mouse model at 3 mg/kg, po administered as daily dose measured at 2 hrs post last dose on day 23; type: ADME, organism-based; details: in vivo
[33] = Drug uptake in brain of diet-induced obese C57BL/6J mouse model at 1 mg/kg, po administered as daily dose measured at 2 hrs post last dose on day 23; type: ADME, organism-based; details: in vivo

Chain of Cytochrome P450 2C9 (P11712 whole entry): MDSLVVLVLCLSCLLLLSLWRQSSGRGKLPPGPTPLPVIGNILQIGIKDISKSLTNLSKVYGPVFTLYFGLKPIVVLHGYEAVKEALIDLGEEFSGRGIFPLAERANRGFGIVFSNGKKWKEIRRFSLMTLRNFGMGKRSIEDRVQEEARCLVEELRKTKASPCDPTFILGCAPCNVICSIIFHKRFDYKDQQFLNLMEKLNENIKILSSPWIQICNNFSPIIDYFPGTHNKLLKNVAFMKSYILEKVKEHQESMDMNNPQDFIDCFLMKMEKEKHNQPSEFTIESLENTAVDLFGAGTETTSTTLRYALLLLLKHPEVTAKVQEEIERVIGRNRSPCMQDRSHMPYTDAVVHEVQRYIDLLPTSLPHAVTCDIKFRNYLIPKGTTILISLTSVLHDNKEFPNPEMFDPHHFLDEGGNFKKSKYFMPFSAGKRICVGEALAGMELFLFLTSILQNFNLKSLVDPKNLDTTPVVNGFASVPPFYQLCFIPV
Chain of Cannabinoid receptor 2 (P34972 whole entry): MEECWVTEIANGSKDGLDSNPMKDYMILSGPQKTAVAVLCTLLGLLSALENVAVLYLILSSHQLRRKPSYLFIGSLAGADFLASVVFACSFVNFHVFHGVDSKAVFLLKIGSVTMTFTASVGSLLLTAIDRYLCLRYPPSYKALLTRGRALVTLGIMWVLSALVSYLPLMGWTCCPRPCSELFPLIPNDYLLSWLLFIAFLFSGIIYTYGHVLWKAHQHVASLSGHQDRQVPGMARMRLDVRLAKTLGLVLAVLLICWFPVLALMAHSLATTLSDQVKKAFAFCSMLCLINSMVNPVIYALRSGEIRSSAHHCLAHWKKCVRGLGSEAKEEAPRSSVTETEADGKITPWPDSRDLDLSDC
Chain of Cytochrome P450 2C19 (P33261 whole entry): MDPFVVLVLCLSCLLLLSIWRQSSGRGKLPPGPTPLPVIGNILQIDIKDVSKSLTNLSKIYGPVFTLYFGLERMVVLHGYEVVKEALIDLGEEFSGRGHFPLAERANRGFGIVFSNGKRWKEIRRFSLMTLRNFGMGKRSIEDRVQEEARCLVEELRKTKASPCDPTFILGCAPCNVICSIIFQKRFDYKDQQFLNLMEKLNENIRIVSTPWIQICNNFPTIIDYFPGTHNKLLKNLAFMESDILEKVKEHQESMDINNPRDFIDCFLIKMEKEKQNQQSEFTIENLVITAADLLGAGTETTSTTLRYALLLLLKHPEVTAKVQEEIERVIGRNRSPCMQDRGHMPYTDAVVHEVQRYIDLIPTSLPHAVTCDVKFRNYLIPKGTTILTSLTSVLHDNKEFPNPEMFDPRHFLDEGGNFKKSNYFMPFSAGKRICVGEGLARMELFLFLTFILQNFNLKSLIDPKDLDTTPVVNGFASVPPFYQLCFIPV
Chain of Voltage-gated inwardly rectifying potassium channel KCNH2 (Q12809 whole entry): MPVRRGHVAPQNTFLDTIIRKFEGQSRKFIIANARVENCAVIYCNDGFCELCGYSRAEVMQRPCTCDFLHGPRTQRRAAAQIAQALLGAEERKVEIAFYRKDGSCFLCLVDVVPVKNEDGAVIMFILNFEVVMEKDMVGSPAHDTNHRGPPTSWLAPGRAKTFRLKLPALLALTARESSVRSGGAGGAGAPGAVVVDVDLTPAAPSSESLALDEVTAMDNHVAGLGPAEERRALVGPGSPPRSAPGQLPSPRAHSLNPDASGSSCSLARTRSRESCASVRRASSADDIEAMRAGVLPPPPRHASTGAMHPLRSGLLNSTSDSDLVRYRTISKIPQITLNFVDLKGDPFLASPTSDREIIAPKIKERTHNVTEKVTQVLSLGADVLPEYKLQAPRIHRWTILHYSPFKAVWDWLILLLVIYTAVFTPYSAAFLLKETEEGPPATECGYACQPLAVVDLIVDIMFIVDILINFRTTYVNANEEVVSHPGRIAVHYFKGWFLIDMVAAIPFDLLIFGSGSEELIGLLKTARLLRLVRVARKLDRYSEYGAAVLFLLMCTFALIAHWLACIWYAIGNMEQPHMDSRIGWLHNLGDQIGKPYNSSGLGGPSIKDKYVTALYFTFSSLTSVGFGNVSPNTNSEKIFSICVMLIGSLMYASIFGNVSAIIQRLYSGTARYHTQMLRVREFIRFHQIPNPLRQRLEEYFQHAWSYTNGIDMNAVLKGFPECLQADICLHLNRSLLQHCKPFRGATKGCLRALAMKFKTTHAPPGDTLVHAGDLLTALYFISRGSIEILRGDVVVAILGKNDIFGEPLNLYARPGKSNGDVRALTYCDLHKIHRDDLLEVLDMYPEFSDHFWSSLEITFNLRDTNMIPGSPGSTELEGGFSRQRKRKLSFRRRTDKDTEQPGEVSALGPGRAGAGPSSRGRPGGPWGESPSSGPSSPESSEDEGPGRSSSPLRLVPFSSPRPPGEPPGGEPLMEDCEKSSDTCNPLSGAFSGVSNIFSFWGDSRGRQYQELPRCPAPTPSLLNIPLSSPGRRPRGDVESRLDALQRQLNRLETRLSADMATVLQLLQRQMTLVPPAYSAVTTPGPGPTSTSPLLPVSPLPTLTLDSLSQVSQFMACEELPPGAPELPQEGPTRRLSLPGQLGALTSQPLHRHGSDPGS
Chain of Cytochrome P450 3A4 (P08684 whole entry): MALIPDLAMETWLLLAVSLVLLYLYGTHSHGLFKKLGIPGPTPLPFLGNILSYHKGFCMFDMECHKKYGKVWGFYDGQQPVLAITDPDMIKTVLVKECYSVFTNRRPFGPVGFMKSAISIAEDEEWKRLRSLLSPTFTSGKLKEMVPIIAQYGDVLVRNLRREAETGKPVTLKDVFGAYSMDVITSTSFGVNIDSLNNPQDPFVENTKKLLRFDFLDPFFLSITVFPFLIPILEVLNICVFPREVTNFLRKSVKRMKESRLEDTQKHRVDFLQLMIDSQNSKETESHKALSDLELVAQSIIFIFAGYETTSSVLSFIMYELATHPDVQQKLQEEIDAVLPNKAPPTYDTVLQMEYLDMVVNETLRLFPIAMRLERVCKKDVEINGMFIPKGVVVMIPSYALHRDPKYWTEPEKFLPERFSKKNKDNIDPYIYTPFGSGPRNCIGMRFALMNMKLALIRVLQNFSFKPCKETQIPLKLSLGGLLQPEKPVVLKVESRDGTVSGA
Chain of Cannabinoid receptor 1 (P21554 whole entry): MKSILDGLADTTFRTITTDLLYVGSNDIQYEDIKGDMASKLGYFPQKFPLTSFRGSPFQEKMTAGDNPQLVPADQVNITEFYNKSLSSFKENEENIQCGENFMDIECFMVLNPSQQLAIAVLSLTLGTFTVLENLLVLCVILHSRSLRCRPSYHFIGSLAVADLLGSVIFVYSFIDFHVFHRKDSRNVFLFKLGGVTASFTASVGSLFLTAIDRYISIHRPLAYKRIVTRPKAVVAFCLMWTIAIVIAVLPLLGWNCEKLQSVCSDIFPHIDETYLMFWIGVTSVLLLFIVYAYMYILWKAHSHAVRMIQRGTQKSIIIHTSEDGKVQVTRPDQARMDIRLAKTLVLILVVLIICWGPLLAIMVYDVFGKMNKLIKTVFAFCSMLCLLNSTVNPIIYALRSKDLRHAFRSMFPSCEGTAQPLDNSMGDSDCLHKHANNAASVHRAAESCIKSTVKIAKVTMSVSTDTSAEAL

O=c1cc(NC2CCN(S(=O)(=O)C(F)(F)F)CC2)c2cc(C(c3ccc(Cl)cc3)c3ccc(Cl)cc3)ccc2[nH]1
concentration at 2 h [1]: 2550 nM
clearance [2]: 2.21 mL/min/kg
Activity (Mus musculus [3]): Active
IC50 [4]: > 50 µM
half-life [5]: 7.26 h
concentration at 2 h [6]: 4950 nM
Activity (Mus musculus [7]): Active
concentration at 2 h [8]: 4080 nM
concentration at 4 h [9]: 1940 nM
concentration at 2 h [10]: 8650 nM
bioavailability [11]: 13%
Kp at 2 h [12]: 0.038
Drug uptake [13]: 0.102 nmol/g
EC50 (Cannabinoid receptor 2): > 10 µM
Drug uptake [14]: 0.012 nmol/g
Activity (Mus musculus [15]): Active
Drug uptake [16]: 0.019 nmol/g
Drug uptake [17]: 0.329 nmol/g
concentration at 2 h [18]: 1240 nM
Activity (Mus musculus [19]): Active
concentration at 2 h [20]: 18500 nM
IC50 (Cytochrome P450 2C9): > 10 µM
remaining at 10 min, 1 µM [21]: 100%
IC50 (Cytochrome P450 3A4): > 10 µM
fraction unbound [22]: 0.0001
concentration at 2 h [23]: 508 nM
Activity (Salmonella typhimurium): Non-Toxic
remaining at 10 min, 1 µM [24]: 100%
IC50 (Cytochrome P450 2C19): > 10 µM
Activity (Mus musculus [25]): Active
Kp at 2 h [26]: 0.065
Activity (Mus musculus [27]): Active
Ratio IC50 (Cannabinoid receptor 1): 6
Activity (Mus musculus [28]): Active
AUC(0-t) [29]: 28.4 µM·h
Kp at 2 h [30]: 0.026
concentration at 1 h [31]: 1720 nM
Drug uptake [32]: 0.164 nmol/g
Drug uptake [33]: 0.06 nmol/g
